# Species on record: Rattus norvegicus
# Assay: Open TG-GATES - Regimen: Single
# Type: toxicity, organism-based, Sprague-Dawley
# Parameters: regimen Single, gender Male, age 6 weeks
# Settings: in vivo, po, 300 mg/kg, route gavage, dose level Middle; for APTT / Bas / Eos / Fbg / Hb / Ht / Lym / MCH / MCHC / MCV / Mono / Neu / PT / Plat / RBC / Ret / WBC: tissue Blood; for KIDNEY_L / KIDNEY_R / KIDNEY_TOTAL: tissue Kidney; for LIVER: tissue Liver; for A/G / ALP / ALT / AST / BUN / CRE / Ca / Cl / DBIL / GLC / IP / K / LDH / Na / PL / RALB / TBIL / TC / TG / TP / gamma-GTP: tissue Plasma
smiles,measurement,setting,value
O=C(O)COc1nn(Cc2ccccc2)c2ccccc12 [BENDAZAC],TERMINAL_BW,3 h,210.1 g
same,APTT,3 h,17.4 s
same,Bas,3 h,0%
same,Eos,3 h,1%
same,Fbg,3 h,206.8 mg/dL
same,Hb,3 h,13.9 g/dL
same,Ht,3 h,41.6%
same,Lym,3 h,80.4%
same,MCH,3 h,21.7 pg
same,MCHC,3 h,33.5%
same,MCV,3 h,64.7 fL
same,Mono,3 h,5.2%
same,Neu,3 h,13.4%
same,PT,3 h,11.7 s
same,Plat,3 h,116.9 x10_4/uL
same,RBC,3 h,643.4 x10_4/ul
same,Ret,3 h,9.9%
same,WBC,3 h,91 x10_2/uL
same,KIDNEY_L,3 h,1 g
same,KIDNEY_R,3 h,1 g
same,KIDNEY_TOTAL,3 h,2 g
same,LIVER,3 h,9.4 g
same,A/G,3 h,2.1
same,ALP,3 h,1450 IU/L
same,ALT,3 h,35.6 IU/L
same,AST,3 h,69.2 IU/L
same,BUN,3 h,11.8 mg/dL
same,CRE,3 h,0.5 mg/dL
same,Ca,3 h,10.6 mg/dL
same,Cl,3 h,101 meq/L
same,DBIL,3 h,0.014 mg/dL
same,GLC,3 h,189.2 mg/dL
same,IP,3 h,10.5 mg/dL
same,K,3 h,4.9 meq/L
same,LDH,3 h,105 IU/L
same,Na,3 h,139.4 meq/L
same,PL,3 h,124.4 mg/dL
same,RALB,3 h,3.6 g/dL
same,TBIL,3 h,1.3 mg/dL
same,TC,3 h,71.6 mg/dL
same,TG,3 h,46 mg/dL
same,TP,3 h,5.4 g/dL
same,gamma-GTP,3 h,1 IU/L
same,TERMINAL_BW,6 h,207.7 g
same,APTT,6 h,17.2 s
same,Bas,6 h,0%
same,Eos,6 h,1.4%
same,Fbg,6 h,214.8 mg/dL
same,Hb,6 h,13.9 g/dL
same,Ht,6 h,41.7%
same,Lym,6 h,78.2%
same,MCH,6 h,21.7 pg
same,MCHC,6 h,33.3%
same,MCV,6 h,65.1 fL
same,Mono,6 h,7.8%
same,Neu,6 h,13%
same,PT,6 h,11.9 s
same,Plat,6 h,119.6 x10_4/uL
same,RBC,6 h,641.8 x10_4/ul
same,Ret,6 h,11.7%
same,WBC,6 h,98.8 x10_2/uL
same,KIDNEY_L,6 h,1 g
same,KIDNEY_R,6 h,1 g
same,KIDNEY_TOTAL,6 h,2 g
same,LIVER,6 h,8.9 g
same,A/G,6 h,2.3
same,ALP,6 h,3422.2 IU/L
same,ALT,6 h,30.2 IU/L
same,AST,6 h,60.8 IU/L
same,BUN,6 h,8.8 mg/dL
same,CRE,6 h,0.6 mg/dL
same,Ca,6 h,10.9 mg/dL
same,Cl,6 h,101.8 meq/L
same,DBIL,6 h,0.066 mg/dL
same,GLC,6 h,189.6 mg/dL
same,IP,6 h,10.7 mg/dL
same,K,6 h,4.9 meq/L
same,LDH,6 h,97 IU/L
same,Na,6 h,141.2 meq/L
same,PL,6 h,135.4 mg/dL
same,RALB,6 h,3.8 g/dL
same,TBIL,6 h,1.5 mg/dL
same,TC,6 h,78.2 mg/dL
same,TG,6 h,27 mg/dL
same,TP,6 h,5.4 g/dL
same,gamma-GTP,6 h,1 IU/L
same,TERMINAL_BW,9 h,200.4 g
same,APTT,9 h,17.2 s
same,Bas,9 h,0%
same,Eos,9 h,1%
same,Fbg,9 h,205 mg/dL
same,Hb,9 h,14 g/dL
same,Ht,9 h,41.8%
same,Lym,9 h,81.8%
same,MCH,9 h,22.3 pg
same,MCHC,9 h,33.4%
same,MCV,9 h,66.8 fL
same,Mono,9 h,5.2%
same,Neu,9 h,12%
same,PT,9 h,11.8 s
same,Plat,9 h,121.4 x10_4/uL
same,RBC,9 h,626.2 x10_4/ul
same,Ret,9 h,8.8%
same,WBC,9 h,86.7 x10_2/uL
same,KIDNEY_L,9 h,0.9 g
same,KIDNEY_R,9 h,1 g
same,KIDNEY_TOTAL,9 h,1.9 g
same,LIVER,9 h,7.8 g
same,A/G,9 h,2.1
same,ALP,9 h,2047.2 IU/L
same,ALT,9 h,29 IU/L
same,AST,9 h,60.2 IU/L
same,BUN,9 h,9.6 mg/dL
same,CRE,9 h,0.6 mg/dL
same,Ca,9 h,10.3 mg/dL
same,Cl,9 h,103.6 meq/L
same,DBIL,9 h,0.028 mg/dL
same,GLC,9 h,183.8 mg/dL
same,IP,9 h,10 mg/dL
same,K,9 h,4.7 meq/L
same,LDH,9 h,94.4 IU/L
same,Na,9 h,143 meq/L
same,PL,9 h,126 mg/dL
same,RALB,9 h,3.7 g/dL
same,TBIL,9 h,1.2 mg/dL
same,TC,9 h,72.4 mg/dL
same,TG,9 h,39.4 mg/dL
same,TP,9 h,5.5 g/dL
same,gamma-GTP,9 h,1.2 IU/L
same,TERMINAL_BW,24 h,220.3 g
same,APTT,24 h,16.8 s
same,Bas,24 h,0%
same,Eos,24 h,1%
same,Fbg,24 h,208.6 mg/dL
same,Hb,24 h,13.6 g/dL
same,Ht,24 h,40.7%
same,Lym,24 h,78.6%
same,MCH,24 h,21.3 pg
same,MCHC,24 h,33.3%
same,MCV,24 h,63.9 fL
same,Mono,24 h,9.6%
same,Neu,24 h,11%
same,PT,24 h,12.2 s
same,Plat,24 h,120.5 x10_4/uL
same,RBC,24 h,637.8 x10_4/ul
same,Ret,24 h,8%
same,WBC,24 h,98.3 x10_2/uL
same,KIDNEY_L,24 h,1 g
same,KIDNEY_R,24 h,1 g
same,KIDNEY_TOTAL,24 h,2 g
same,LIVER,24 h,11.3 g
same,A/G,24 h,2.2
same,ALP,24 h,1529.6 IU/L
same,ALT,24 h,39 IU/L
same,AST,24 h,71.2 IU/L
same,BUN,24 h,19.8 mg/dL
same,CRE,24 h,0.6 mg/dL
same,Ca,24 h,11 mg/dL
same,Cl,24 h,104 meq/L
same,DBIL,24 h,0.006 mg/dL
same,GLC,24 h,187.2 mg/dL
same,IP,24 h,6.3 mg/dL
same,K,24 h,4.5 meq/L
same,LDH,24 h,123.4 IU/L
same,Na,24 h,140 meq/L
same,PL,24 h,132 mg/dL
same,RALB,24 h,3.8 g/dL
same,TBIL,24 h,1 mg/dL
same,TC,24 h,66.8 mg/dL
same,TG,24 h,111 mg/dL
same,TP,24 h,5.5 g/dL
same,gamma-GTP,24 h,1 IU/L

# — ChEMBL document CHEMBL3885861, “Open TG-GATES”
